The results in this text go back to patent publication US20080234233A1, “MEDICAMENT FOR TREATMENT OF NEURODEGENERATIVE DISEASES” (INSTITUTE OF MEDICINAL MOLECULAR DESIGN INC., priority 2002, published 2008).

One assay has as its system NF-κ B activation. In words: Inhibitory activity of NF-κB activation, luciferase reporter assay under TNF-α stimulation in HepG2. The conditions noted are these: HepG2, TNF-α 40 ng/ml, 4 hours. The assay is classed as cell-based, human. The method in brief: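 HepG2 cells transiently transfected with luciferase reporter carrying five tandem NF-κB binding sites, then stimulated with TNF-α (40 ng/ml) ± compound for 4 hours. Luminescent luciferase activity measured; inhibition expressed relative to activity without compound.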
On the technique in general: A reporter such as luciferase makes a cellular process visible.

For a further assay, the system named is AP-1 activation. In words: Inhibition against AP-1 activation by TNF α stimulation, luciferase reporter assay in HeLa. The format is cell-based, human. Particulars: TNF-α 40 ng/ml, 4 hours. As to the method:
Measurement of Inhibition Against AP-1 Activation by TNF α Stimulation
Using a transfection reagent(Effectene; QIAGEN), the human uterine cancer cell strain HeLa was transfected with a plasmid(pAP-1-Luc Reporter Plasmid: […]) integrated with an oligonucleotide having seven tandem copies of AP-1 binding sequences(TGACTAA) on an upstream region of firefly luciferase gene(Luc) according to the QIAGEN's protocol, and the cells were incubated for 6 to 24 hours. After addition of TNF-α (40 ng/ml) in the presence or absence of a test compound, the cells were incubated for 4 hours, and intracellular luciferase activity was measured by using PicaGene LT(TOYO INK MFG Co., Ltd.) and a chemical luminescence measurement apparatus([…]luor Plus; TECAN). The inhibitory ratio was measured as a ratio relative to the value of the luciferase activity in the absence of the test compound.

Assay [1] relates to rat hippocampus injected with human β amyloid. In words: Inhibitory activity against hypoplasia of memory formation (LTP), Alzheimer's model by injection of human β amyloid into the rat hippocampus. The assay is classed as in vivo. Particulars: 30 mg/kg intraperitoneally once a day, FIG. 1. The text has this: Several places of rat hippocampus were infused with a 1:1 mixture of A β 1-40 and A β 1-43 which are human β amyloids (Aβ) for 7 continuous days by the microinjection method. On the 8th day, bipolar stimulating electrodes were fixed to the perforate pathway, and recording electrodes were fixed to the stratum moleculare of the hippocampus dentate gyrus under urethane anesthesia. A mono-synaptic reaction was searched by about 14 to 20 mV of test pulse from the stimulating electrode. Long-term potentiations (LTP: neurophysiological memory model phenomena) were compared by the test simulation and tetanic stimulation, and the existence of hypoplasia of memory formation was verified which is a problem in Alzheimer's disease. Three days before the start of the injection of β amyloid, saline for the control group and the test compound (30 mg/kg) for the dosing group were administered intraperitoneally once a day, and a comparison of LTP was carried out.

The subject of another assay is GSK3 β. In words: Amount of phosphorylated GSK3 β in MOLT-4F cells. The format is cell-based, human. The conditions noted are these: 2 μM, 24 hours. As to the method: When Compound No. 4 (2 μM) of the present invention was allowed to act on MOLT-4F cells(human leukemia cells) for 24 hours, the amount of phosphorylated GSK3 β, produced by phosphorylation of GSK3 β, was increased, and it is well presumed that similar phenomena may possibly occur in nerve cells. Since GSK3 β is inactivated by the phosphorylation, it is considered that the increase of the amount of the phosphorylated GSK3 β substantially means the inhibition of GSK3 β. […] (Refer to “The Biochemical Journal”, (England), 2001, Vol. 359, No. PT1, p. 1-16; “Current Opinion in Neurobiology”, (England), 2002, Vol. 12, No. 3, p. 275-278; “Trends in Molecular Medicine”, (England), 2002, Vol. 8, No. 3, p. 126-132; “Proceedings of The National Academy of Sciences of The United States of America”, (USA), 1996, Vol. 93, No. 7, p. 2719-2723; “The Journal of Biological Chemistry”, (USA), 2002, Vol. 277, No. 44, p. 42060-42065; “Proceedings of The National Academy of Sciences of The United States of America”, (USA), 2003, Vol. 100, No. 2, p. 721-726; “Annals of The New York Academy of Sciences”, (USA), 2000, Vol. 920, p. 107-114; “Nature”, (England), 2003, Vol. 423, No. 6938, p. 435-439; and “Neuron”, (USA), 2003, Vol. 38, No. 4, p. 555-565.)

Turning to `O=C(Nc1cc(C(F)(F)F)cc(C(F)(F)F)c1)c1cc(Cl)ccc1O` [compound 4, N-[3,5-bis(trifluoromethylphenyl)]-5-chloro-2-hydroxybenzamide], the “Inhibitory rate against NF-κB activation (%)” value in the assay on NF-κ B activation (Drug concentration at 1 μg/mL) is listed as 95.7%; with NF-κ B activation (Drug concentration at 10 μg/mL) it was 97.5%. Also, the “Inhibitory rate against AP-1 activation(%)” value with AP-1 activation (Drug concentration at 1 μg/mL) came out at 42.4%; in the assay on AP-1 activation (Drug concentration at 10 μg/mL), 89.1%. Also, the “inhibitory activity against hypoplasia of memory (LTP)” value in assay [1] is given as “inhibitory activity against hypoplasia of memory”. Besides, the “amount of phosphorylated GSK3 β” value in the assay with GSK3 β is on record as “increased”.
